Measurements from patent EP0326526A1, “Aminoketones of substituted dibenzo- and pyridobenzo-azepinones and pharmaceutical compositions” (ISTITUTO DE ANGELI S.p.A., priority 1988, dated 1989).

How the values were obtained:
[1] = target: T1, M₁ muscarinic receptors (cerebral cortex) (Rattus norvegicus, UniProt P08482); assay: Muscarinic M₁ receptor binding: displacement of ³H-pirenzepine from cerebral cortex homogenate; parameters: species or system male CD-COOBBS rats; details: competition against 0.5 nM ³H-pirenzepine, 45 min at 30°C, read-out: IN VITRO RECEPTOR BINDING TEST KD M₁ (cortex)
T1 construct: displacement of ³H-pirenzepine from cerebral cortex homogenate; from tissue; host or cells: rat cerebral cortex homogenate
T1 sequence (P08482 1-460): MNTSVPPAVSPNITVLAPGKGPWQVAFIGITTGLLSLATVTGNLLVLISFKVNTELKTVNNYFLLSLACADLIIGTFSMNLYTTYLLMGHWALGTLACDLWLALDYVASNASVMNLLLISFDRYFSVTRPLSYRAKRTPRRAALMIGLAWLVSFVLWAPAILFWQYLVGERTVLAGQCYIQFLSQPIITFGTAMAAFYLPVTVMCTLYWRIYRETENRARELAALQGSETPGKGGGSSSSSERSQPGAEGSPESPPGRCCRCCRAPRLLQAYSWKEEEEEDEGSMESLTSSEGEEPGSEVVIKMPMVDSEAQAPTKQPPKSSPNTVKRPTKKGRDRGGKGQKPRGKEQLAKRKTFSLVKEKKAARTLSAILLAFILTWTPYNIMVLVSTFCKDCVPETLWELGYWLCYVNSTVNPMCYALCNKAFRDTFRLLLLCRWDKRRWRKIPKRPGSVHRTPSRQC
Method: (§1) Antimuscarinic activity and selectivity were examined in vitro by receptor binding studies in two tissues endowed with M₁ and M₂ muscarinic receptors (cerebral cortex, heart) and in vivo by studying the acid secretion and pepsin inhibition (M₁ response) in comparison with the cardiac and mydriatic effects (M₂ response) in conscious dogs equipped with cronic gastric fistula.
Muscarinic M₁ activity was determined by studying the displacement of ³H-pirenzepine from cerebral cortex homogenate according to the procedure reported below: The cerebral cortex donors were male CD-COOBBS rats, 220-250 g body weight. The homogenization process was carried out in a Potter-Evelhjem apparatus in the presence of Na⁺/Mg⁺⁺ HEPES buffer; pH 7.4 (100 mM NaCl, 10 mM MgCl₂, 20 mM HEPES); by filtering the suspension through two layers of cheesecloth. Binding curves for the under study compounds were derived indirectly from competition experiments against 0.5 nM ³H-pirenzepine labelling the muscarinic receptors of the cerebral cortex. 1 ml of the homogenate was incubated for 45 min at 30°C in the presence of a marker ligand and dif ferent concentrations of the cold ligand, conditions under which equilibrium was reached as determined by appropriate association experiments. The incubation was termination by centrifugation (12,000 rpm for 3 min) at room temperature using an Eppendorf microcentrifuge. The resultant pellet was washed twice with 1.5 ml saline to remove the free radioactivity and the final pellet was allowed to drain. The tips of the tubes containing the pellet were cut off and 200µl of tissue subilizer (Lumasolve, Lumac) were added and left to stand overnight. Radioactivity was then counted after addition of 4 ml of liquid scintillation mixture (Dimilume/Toluene 1:10 v:v, Packard).
Assays were carried out in triplicate or quadruplicate and the non-specific binding was defined as the radioactivity bound or entrapped in the pellet when the incubation medium contained 1 µM atropine sulphate. Non-specific binding avaraged less then 30%. […]

[2] = tested on: conscious dogs equipped with cronic gastric fistula; assay: Conscious gastric fistula dog in vivo: 2-DG-elicited gastric secretion, heart rate and pupil diameter; parameters: species or system male Beagle dogs; details: cumulative i.v. dosing; for Heart rate ED₅₀ (beats/min): dose increasing heart rate by 50 beats per min; for ED₅₀ (agonist 2-DG*) Acid output: dose inhibiting 50% acid output; for ED₅₀ (agonist 2-DG*) Acid output / ED₅₀ (agonist 2-DG*) Pepsin output: secretion elicited by 2-deoxy-D-glucose 100 mg/kg i.v.; for ED₅₀ (agonist 2-DG*) Pepsin output: dose inhibiting 50% pepsin output; for Dose doubling pupil diameter: dose which at least doubled the initial pupil diameter
Method: as §1
Studies were performed in 5 male Beagle dogs (15-22 Kg) with well established gastric fistula. Gastric secretion was elicited by 2-deoxy-D-glucose (2-DG) (100 mg/kg, infused intravenously in 10 min), and collected by gravity drainage at 15 min intervals. […] Each sample was measured for volume (to the nearest 0.1 ml) and acidity (titration of 1 ml sample to pH 7 with NaOH 0.1 N by means of an automatic titrator ITT Radiometer PHM 62); the pepsin content in each 15 min sample was determined on 0.1 ml of gastric juice (diluted 1:20 wich HCl 0.1 N), using the hemoglobin digestion method described by Anson (J.Gen. Phys. 22 ([…]) 79) and expressed in mU Anson.
The compounds were injected intravenously in a cumulative fashion, each dose being administered at 15 min intervals, starting after the peak response was reached. At each dose level, heart rate was measured by a cardiotachometer and pupil diameter scored under constant light. Doses inhibiting 50% (ED₅₀ and their 95% confidence limits) acid and pepsin output and maximal inhibition (I max), were obtained by fractional linear transformation of the data: D/I = aD+b, were D = dose of antagonist; I = % inhibition of acid or pepsin output; I max = 1/a; ED₅₀ = b/a. (Hirschowitz B.I. Am. J. Physiol. 216: 487-489 1969) Doses increasing heart rate by 50 beats per min (ED₅₀ and their 95% confidence limits) were evaluated by linear regression analysis of the data relating dose to effect.
Doses of compound which at least doubled the initial pupil diameter were also determined.

[3] = target: T2, M₂ muscarinic receptors (heart) (Rattus norvegicus, UniProt P10980); assay: Muscarinic M₂ receptor binding: displacement of ³H-NMS from total heart homogenate; details: read-out: IN VITRO RECEPTOR BINDING TEST KD M₂ (heart)
T2 construct: displacement of ³H-NMS from total heart homogenate; from tissue; rat inferred
T2 sequence (P10980 1-466): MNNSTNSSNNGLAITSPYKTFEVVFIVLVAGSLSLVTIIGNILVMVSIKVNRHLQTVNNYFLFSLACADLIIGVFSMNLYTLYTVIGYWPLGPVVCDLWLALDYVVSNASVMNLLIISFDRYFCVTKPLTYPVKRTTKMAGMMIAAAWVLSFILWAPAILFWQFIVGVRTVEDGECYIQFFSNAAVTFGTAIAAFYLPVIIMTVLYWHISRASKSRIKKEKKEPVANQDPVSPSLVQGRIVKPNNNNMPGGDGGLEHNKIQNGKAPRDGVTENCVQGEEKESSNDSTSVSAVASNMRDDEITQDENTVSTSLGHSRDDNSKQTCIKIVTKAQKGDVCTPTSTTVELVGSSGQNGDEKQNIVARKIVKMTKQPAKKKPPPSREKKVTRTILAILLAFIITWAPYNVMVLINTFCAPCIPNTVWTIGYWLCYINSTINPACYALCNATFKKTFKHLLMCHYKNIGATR

Row | Compound | Kd [1] [nM] | Heart rate ED₅₀ (beats/min) [2] [µg/kg i.v.] | ED₅₀ (agonist 2-DG*) Acid output [2] [µg/kg i.v.] | ED₅₀ (agonist 2-DG*) Pepsin output [2] [µg/kg i.v.] | Dose doubling pupil diameter [2] [µg/kg i.v.] | Kd [3] [nM]
1 | CN1CCC(C(=O)C2c3ccccc3C(=O)Nc3ccc(Cl)nc32)CC1 (stereo not drawn) [Compound 12, 2-chloro-6,11-dihydro-11-[(1-methyl-4-piperidinyl)-carbonyl]-5H-pyrido[2,3b]-benzazepin-6-one] | 3.15 | 78 | 7.2 | 6.3 | 320 | 279
2 | CN1CCC(C(=O)C2c3ccccc3C(=O)Nc3cccc(F)c32)CC1 (stereo not drawn) [Compound 4, 1-fluoro-6,11-dihydro-11-[(1-methyl-4-piperidinyl)-carbonyl]-5H-dibenz[b,e]-azepin-6-one] | 2.2 | 191 | 6.1 | 5.3 | 512 | 210
3 | CN1CCC(C(=O)C2c3ccccc3NC(=O)c3ccccc32)CC1 (stereo not drawn) [Compound 1, 6,11-dihydro-11-[(1-methyl-4-piperidinyl)-carbonyl]-5H-dibenz[b,e]-azepin-6-one] | 2.1 | 204 | 6.2 | 8.0 | 512 | 212
